The nature of the data set: Human HepG2 cell viability assay in 384 well format. The format is toxicity, cell-based. On the set-up: dose 125 nL, time 70.5 hour; concentration not given beside the values. Conditions: HepG2 cells, read-out: Inhibition.
As for `Cc1noc(C)c1CN(C)C(=O)C1CCN(S(N)(=O)=O)CC1`, the cytotoxicity at 70.5 h is -1.71%. With `O=C(N1CCOCC1)N1CCc2[nH]nc(COc3cccc(Cl)c3)c2C1` the figure was -2.78%; with `CCCc1nc(C(=O)N(C)Cc2cnn(-c3cccc(OC)c3)c2)cs1`, -8.69%.

Consider `CNC(=O)c1ccccc1-c1ccc(S(C)(=O)=O)cc1`, for which the cytotoxicity at 70.5 h was -4.9%. On to `O=C(Nc1ccccc1F)N1CCN(Cc2noc(C3CC3)n2)CC1`, for which the cytotoxicity at 70.5 h was -10.2%. For `Cc1ccc(F)c(NC(=O)NCCCn2nc3ccccn3c2=O)c1`, the cytotoxicity at 70.5 h is -3.3%. With `COc1cccc(CC(=O)NC2CCCc3cn[nH]c32)c1` (configuration not stated) the figure was -0.729%; with `Cc1cccc(C(=O)N2CCCN(Cc3cnn(C)c3)CC2)n1`, -19.9%; with `CS(=O)(=O)NCCN1CCOC2(CCc3ccccc32)C1` (configuration not stated), -7.71%. Next, `Cc1ccc(-c2nc(CSCCC(=O)NC(N)=O)co2)c(C)c1`: 22%; `Cc1cnn(CC2CN(Cc3nnc(C4CC4)o3)CCO2)c1` (configuration not stated): -5.68%; `Cc1nn(CC(C)C)c(N(C)C)c1CNCc1cccc2c1OCO2`: 10.6%. For `CC(C)N(C)Cc1cnc2n1CCN(S(=O)(=O)c1ccccc1)C2`, the cytotoxicity at 70.5 h is 15.9%.

Turning to `CS(=O)(=O)N1C[C@@H]2CC[C@H](C1)N(Cc1cscn1)C2=O`, the cytotoxicity at 70.5 h is -11.4%. Next, `COCCC(=O)N1CCc2c(CNc3ncccn3)cncc2C1`: -1.53%.

As to `CCCc1ccc2oc(C(=O)N3CCN(CCC(N)=O)CC3)c(C)c2c1`, the cytotoxicity at 70.5 h amounted to 19.5%. As to `C=C(C)COc1ccccc1CNCCc1cc(O)nc(C)n1`, the cytotoxicity at 70.5 h is -2.32%. `CN(Cc1ccncc1)C1COC2(CCN(Cc3ccsc3)CC2)C1` (configuration not stated): the cytotoxicity at 70.5 h was -15.1%.

Consider `NC(=O)C1CCN(C(=O)c2ccn(-c3cccc(Cl)c3)n2)C1` (configuration not stated), for which the cytotoxicity at 70.5 h is -17.8%. `CCOc1ccc(Cl)cc1C(C(=O)O)N1CCOCC1` (configuration not stated): the cytotoxicity at 70.5 h was -4.12%. On to `CC(C)(C)C(CCO)NC(=O)Nc1ccccc1` (configuration not stated), for which the cytotoxicity at 70.5 h was -9.49%. For the compound `CC(C)CNC(=O)c1nc(COc2ccc3c(c2)OCO3)no1`, the cytotoxicity at 70.5 h is -7.9%.

On to `CNC(=O)CN1CC[C@H]2CN(C(=O)c3ccccc3F)C[C@H]2C1`, for which the cytotoxicity at 70.5 h was -2.12%. For `CS(=O)(=O)NCC1CCCN(c2ccc(C(F)(F)F)cn2)C1` (configuration not stated), the cytotoxicity at 70.5 h was -7.49%. With `Cc1nn(CC(=O)Nc2ccon2)c(C)c1Br` the figure was -11.8%. Next, `Cc1noc(C)c1CCCNC(=O)C1CCCN(C(=O)C2CC2)C1` (configuration not stated): -0.841%; `Cc1cc(CN2C[C@@H]3CN(C(=O)c4ccsc4)CCO[C@@H]3C2)no1`: 5.07%; `COCCOc1ccc(-c2noc([C@@H]3CCCN3)n2)cn1`: -0.543%. Next, `CN(C)C(=O)C1CN(Cc2cccs2)CCN(S(C)(=O)=O)C1` (configuration not stated): -5.12%. In the case of `COc1ccc(CC(C)(O)CNC(=O)NCc2cccs2)cc1` (configuration not stated), the cytotoxicity at 70.5 h was -13.9%.

As for `O=C(c1cscn1)N1C[C@H]2CN(Cc3nccs3)C[C@H]2C1`, the cytotoxicity at 70.5 h is -1.36%. Regarding `COC(=O)CCNC(=O)c1c[nH]cc1-c1cccc(OC)c1`, the cytotoxicity at 70.5 h is 3.36%. Regarding `Cc1cccc(CN2C(=O)CC[C@@H]3[C@H]2CCN3Cc2nccn2C)n1`, the cytotoxicity at 70.5 h is -9.05%. Turning to `Cc1cncc(C(=O)N2CCN(c3cnn(C)c(=O)c3)CC2)c1`, the cytotoxicity at 70.5 h was -6.5%. In the case of `O=C(CCc1cc(Br)cs1)NCCCn1ccnc1`, the cytotoxicity at 70.5 h worked out at 5.85%. With `COC(=O)c1cccc(C(=O)N(C)Cc2cccc(O)c2)c1` the figure was 15.5%.

Take `CCC[C@H]1CN(CCCO)C[C@@H]1NC(=O)Cn1cc(C)cn1`: the cytotoxicity at 70.5 h was -4.28%. For `Cc1cc(N2CCCC2c2cnccn2)ncn1` (configuration not stated), the cytotoxicity at 70.5 h was -5.35%.

With `CC1CCC(NS(=O)(=O)CC(=O)NCC2CCC2)CC1` (configuration not stated), the cytotoxicity at 70.5 h is -13.2%. In the case of `CC(C)C(NC(=O)Nc1ccccn1)c1cccs1` (configuration not stated), the cytotoxicity at 70.5 h stood at 28.6%. Next, `Clc1cnccc1NCc1cccc(COC2CCOCC2)c1`: -0.494%; `COc1ccc(-c2noc([C@@H]3C[C@@H](O)CN3C3CCCCC3)n2)cc1`: -1.99%; `COc1ccc(OC)c(C(O)CN2CCC(N3CCC(C)CC3)CC2)c1` (configuration not stated): 2.26%. As to `CC(C)CN1C(=O)CC[C@]12CC[C@@H](NC(=O)NCc1cccnc1)CC2`, the cytotoxicity at 70.5 h was -3.62%.

On to `Cc1ccc(C(=O)NS(=O)(=O)Cc2ccc(F)cc2)cc1S(C)(=O)=O`, for which the cytotoxicity at 70.5 h is -3.12%. With `CCCc1cc(NC2CCc3nc(CC)nn3C2)n2ncnc2n1` (configuration not stated), the cytotoxicity at 70.5 h was -100%.

For the compound `CC(=O)N[C@@H]1CN(Cc2ccccc2C(=O)O)C[C@H]1C(C)C`, the cytotoxicity at 70.5 h was 0.633%. With `Cc1cnn(C2CN(Cc3nc(-c4ccsc4)no3)C2)c1` the figure was -8.74%; with `CCCN1CCC2(C1)c1ccccc1S(=O)(=O)N2Cc1ccc(F)cc1` (configuration not stated), -1.79%. For `CN(C(=O)OC(C)(C)C)C1CCN(C(=O)c2cc(Cl)c[nH]2)C1` (configuration not stated), the cytotoxicity at 70.5 h turned out to be 13%. Next, `CC(=O)N1CCC(Cc2cnc(-c3c(C)nn(C)c3C)cn2)CC1`: -0.949%; `Cc1cc(C)nc(N2CCC(NCCSc3nnnn3C)CC2)n1`: 11.2%.

As for `Cc1ncsc1CNc1cccc(OCCN2CCCC2)c1`, the cytotoxicity at 70.5 h was 1.28%.

`O=C1CC2(CCSC2)C(=O)N1Cc1ncc(-c2ccccc2)o1` (configuration not stated): the cytotoxicity at 70.5 h is -2.34%. Next, `Cc1noc([C@@H]2C[C@@H]3CCN(CC4CC4)C[C@H]3O2)n1`: -4.17%.

As for `Cc1cncc(C(=O)N2CCC(Cn3cc(-c4ccsc4)nn3)CC2)c1`, the cytotoxicity at 70.5 h was -16.9%. As for `CCn1ccnc1CN1CCCN(C(=O)c2cnc(C)cn2)CC1`, the cytotoxicity at 70.5 h was -5.42%.

With `c1ncn(CC2CN(Cc3csc(C4CCCC4)n3)CCO2)n1` (configuration not stated), the cytotoxicity at 70.5 h was -7.39%. On to `CCOC(=O)NC(C(=O)NCc1ccc(N2CCCCC2)nc1)C(C)C` (configuration not stated), for which the cytotoxicity at 70.5 h was -8.83%. For the compound `Cc1ccc(C(=O)NCc2ccc(N(C)C)cc2)cn1`, the cytotoxicity at 70.5 h is -10.4%. On to `Cn1cc(C2CCCN2C(=O)CCCOc2ccccc2F)cn1` (configuration not stated), for which the cytotoxicity at 70.5 h is -2.53%.

For the compound `CCc1n[nH]c(C(=O)N2CCCC3(CN(C)C(=O)O3)C2)c1C` (configuration not stated), the cytotoxicity at 70.5 h was -13.7%. Next, `CC(C)CCCC(C)NC(=O)c1ccc(OCC(N)=O)cc1` (configuration not stated): -6.3%. `O=C(Nc1cccnc1)[C@H]1C[C@H]2OCC[C@H]2N(Cc2ccc(F)cc2)C1`: the cytotoxicity at 70.5 h is -10%.

Consider `COc1cccc(COCC(=O)N2CCCC(n3cccn3)C2)c1` (configuration not stated), for which the cytotoxicity at 70.5 h is -4.65%. Take `N[C@@H](Cc1ccccc1)c1nnc(S(=O)(=O)Cc2ccc(Cl)cc2)o1`: the cytotoxicity at 70.5 h amounted to 12.7%. For `Cc1cc(C(F)(F)F)cc(N2CCN(Cc3ccccc3)CC(O)C2)n1` (configuration not stated), the cytotoxicity at 70.5 h worked out at 3.5%.

For `CCOCCn1nc(C2CCNCC2)n(Cc2ccccc2)c1=O`, the cytotoxicity at 70.5 h was 3.02%. Take `COc1ccc(CN2CCOC(CCc3ccnc(N)c3)C2)cc1` (configuration not stated): the cytotoxicity at 70.5 h was -0.852%. For `Cc1cnn(CC(=O)NCC2(O)CCCc3ccccc32)c1` (configuration not stated), the cytotoxicity at 70.5 h amounted to 2.95%. With `CC(C)(C)OC(=O)N1CCN(S(C)(=O)=O)C2(CCCCC2)C1` the figure was -1.8%; with `CC(=O)N1CCC(Oc2cccc(C#N)c2)CC1`, 13.4%; with `Cc1n[nH]c(C)c1CCC(=O)N(C)Cc1cn[nH]c1-c1ccc(F)cc1`, 5.04%. With `CCCS(=O)(=O)N1CCC(n2nc(-c3cc(C)oc3C)ccc2=O)CC1` the figure was 8.97%. Regarding `CN(C)C(CNCc1nc(-c2ccsc2)no1)c1ccsc1` (configuration not stated), the cytotoxicity at 70.5 h was 4.31%. As to `CC(Cn1cccn1)NC(=O)c1ccsc1` (configuration not stated), the cytotoxicity at 70.5 h is -11.4%. With `COc1cccc(NC(=O)N(CCC(F)(F)F)C[C@H](O)CO)c1`, the cytotoxicity at 70.5 h was -4.42%. Take `Cc1noc(CCNC(=O)NCC(=O)NCc2ccccc2)n1`: the cytotoxicity at 70.5 h is -4.83%. For the compound `CCCN(C(=O)c1ccccn1)c1nc2c(s1)CCc1c-2cnn1C`, the cytotoxicity at 70.5 h is 3.64%. As for `CCn1c(C(=O)N2CCN(CC(C)O)CC2)cc2ccccc21` (configuration not stated), the cytotoxicity at 70.5 h amounted to 21.6%.

With `COCC(=O)N1CCCC(COc2ccccc2C)C1` (configuration not stated), the cytotoxicity at 70.5 h came out at 12.8%.

Regarding `COCCN1CC(C(=O)Nc2ccc3c(c2)CCC(=O)N3C)CC1=O` (configuration not stated), the cytotoxicity at 70.5 h was 0.117%.

With `COc1ccc(C(=O)CNC(=O)c2nc(Cl)sc2C(C)C)cc1`, the cytotoxicity at 70.5 h was 25%.

Consider `Cc1cc(C)nc(N2CC=C[C@H]2C(=O)NCc2ccc3c(c2)OCO3)n1`, for which the cytotoxicity at 70.5 h was -3.34%. With `CS(=O)(=O)N[C@H]1CN(C(=O)c2cscn2)[C@@H]2CCCO[C@H]12`, the cytotoxicity at 70.5 h was -8.41%. Turning to `Cc1cc(C(=O)Nc2ccnc(OC3CCOC3)c2)c(C)o1` (configuration not stated), the cytotoxicity at 70.5 h was -1.8%. Take `CN(C(=O)NCCCNc1ccccn1)C1CCS(=O)(=O)C1` (configuration not stated): the cytotoxicity at 70.5 h was -10.6%. Next, `COc1ccc2c(c1)CCCN2C(=O)CN1CCOC(C)C1` (configuration not stated): 0.691%.

For the compound `CCOc1ccccc1N(C)C(=O)c1ccc(Cl)cn1`, the cytotoxicity at 70.5 h came to 21.8%.

On to `CC(C)NC(=O)c1cc2c(c3ccccc3n2C)n1C(=O)N(C)C`, for which the cytotoxicity at 70.5 h is -9.14%. `O=C1N(Cc2ccccn2)C[C@H]2CN(C3CCC3)CCN12`: the cytotoxicity at 70.5 h stood at 2.38%.

Consider `CCCn1c(NCCc2ccccc2)nc2c(C)nn(C)c2c1=O`, for which the cytotoxicity at 70.5 h is 11.6%. Turning to `CC(C)Oc1cc(N2CCCC(O)C2)nc(N)n1` (configuration not stated), the cytotoxicity at 70.5 h was 7.95%. Next, `CN1CCCC(N2CCN(c3cc(C(F)(F)F)ccn3)CC2)C1` (configuration not stated): -5.61%; `CC(C)c1cc(C(=O)N2CCN(CC3CC3)[C@@H]3CS(=O)(=O)C[C@@H]32)no1`: -3.21%. As for `Cc1ccccc1-n1c(C)cc(=O)[nH]c1=O`, the cytotoxicity at 70.5 h stood at 26.3%.

`O=C(Cc1ccc2c(c1)CCO2)N1CCN(c2ccncc2)CC1`: the cytotoxicity at 70.5 h was 6.77%.

For the origin of these results see ChEMBL document CHEMBL3507680, “University of Dundee, Gates Library screen for HepG2 cell viability”.
